Earlier results, collected in patent US20130079342A1, “HETEROCYCLIC COMPOUNDS AND THEIR USES” (priority 2011, published 2013).

Tests used:
[1] = tested on: systemic lupus erythematosis model; details: in vivo
[2] = tested on: rheumatoid arthritis model; details: in vivo
[3] = tested on: ovalbumin-induced airway inflammation
p110δ = target: T1, p110δ (Homo sapiens, UniProt O00329)
T1 sequence (O00329 1-1044): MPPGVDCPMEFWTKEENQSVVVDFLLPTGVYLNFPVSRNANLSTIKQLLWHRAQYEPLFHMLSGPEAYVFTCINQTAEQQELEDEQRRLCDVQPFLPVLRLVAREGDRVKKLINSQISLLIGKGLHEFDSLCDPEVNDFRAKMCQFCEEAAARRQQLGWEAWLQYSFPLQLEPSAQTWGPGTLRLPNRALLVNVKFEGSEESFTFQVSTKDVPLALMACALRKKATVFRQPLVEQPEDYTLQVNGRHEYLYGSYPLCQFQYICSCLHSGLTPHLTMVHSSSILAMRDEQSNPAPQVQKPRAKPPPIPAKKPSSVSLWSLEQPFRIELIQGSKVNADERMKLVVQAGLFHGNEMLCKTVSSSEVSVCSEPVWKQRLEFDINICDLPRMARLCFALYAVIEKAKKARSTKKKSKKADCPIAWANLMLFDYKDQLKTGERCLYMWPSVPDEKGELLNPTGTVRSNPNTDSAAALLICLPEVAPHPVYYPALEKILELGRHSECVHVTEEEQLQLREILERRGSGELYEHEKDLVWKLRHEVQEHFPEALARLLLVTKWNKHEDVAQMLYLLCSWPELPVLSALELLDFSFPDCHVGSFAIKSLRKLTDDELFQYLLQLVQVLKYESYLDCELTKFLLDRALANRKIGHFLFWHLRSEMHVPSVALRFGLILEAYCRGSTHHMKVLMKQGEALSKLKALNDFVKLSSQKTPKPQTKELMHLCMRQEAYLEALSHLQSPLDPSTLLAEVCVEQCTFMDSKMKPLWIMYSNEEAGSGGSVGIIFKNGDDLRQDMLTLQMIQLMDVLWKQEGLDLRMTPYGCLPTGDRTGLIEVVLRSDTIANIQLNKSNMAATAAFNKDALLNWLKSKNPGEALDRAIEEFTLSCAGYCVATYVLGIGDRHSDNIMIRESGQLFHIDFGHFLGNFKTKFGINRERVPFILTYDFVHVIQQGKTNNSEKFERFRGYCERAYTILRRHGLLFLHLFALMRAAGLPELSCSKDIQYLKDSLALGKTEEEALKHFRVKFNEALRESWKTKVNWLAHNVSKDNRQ

SMILES	onset of disease in a model of systemic lupus erythematosis [1]	efficacy in a mouse model of rheumatoid arthritis [2]	inflammation and disease in a murine model of asthma [3]	activity against any protein kinases tested (protein kinases)	inhibition of p110δ (p110δ)
O=C1NC(=O)/C(=C\c2ccc3nccnc3c2)S1 [AS 605240]	delay onset of disease	efficacious	–	–	–
Cc1ccccc1-n1c(Cn2cnc3c(N)ncnc32)nc2cccc(C)c2c1=O [IC87114]	–	–	significantly ameliorate inflammation and disease	no activity	high nanomolar range (triple digit)
